Consider 19 molecules from ChEMBL document CHEMBL5252598, “Armeniaspirol analogues disrupt the electrical potential (ΔΨ) of the proton motive force” (Bioorg Med Chem Lett, 2023).

Assay [1] has as its system Cell membrane. Put plainly: Induction of membrane depolarization in methicillin-resistant Staphylococcus aureus USA300 assessed as disruption of transmembrane proton gradient by DiSC3(5) dye-based fluorescence assay.
Assay [2] concerns Cell membrane. Put plainly: Induction of membrane depolarization in methicillin-resistant Staphylococcus aureus USA300 by […] dye-based fluorescence assay. It is filed as subcellular.
The test system of assay [3] is Cell membrane. Put plainly: Induction of membrane depolarization in methicillin-resistant Staphylococcus aureus USA300 assessed as measuring minimum effective concentration by DiSC3(5) dye-based fluorescence assay.
For the next assay, the system named is Staphylococcus aureus. Put plainly: Antibacterial activity against Staphylococcus aureus USA300 assessed as bacterial growth inhibition by checkerboard assay. The class given is functional.
The subject of assay [4] is Escherichia coli. Put plainly: Antagonistic antibacterial activity against Escherichia coli harbouring TolC-deficient mutant assessed as fractional inhibitory concentration in presence of kanamycin by checker board assay. The class given is functional.
Assay [5] has as its system Cell membrane. Put plainly: Induction of membrane depolarization in methicillin-resistant Staphylococcus aureus USA300 assessed as disruption of transmembrane electrical potential by DiSC3(5) dye-based fluorescence assay.
The test system of assay [6] is Escherichia coli. Put plainly: Antibacterial activity against Escherichia coli harbouring TolC-deficient mutant assessed as fractional inhibitory concentration in presence of tetracycline by checker board assay. The class given is functional.
Assay [7] concerns Bacteria. Put plainly: Inhibition of ATP-dependent ClpYQ proteases (unknown origin).
Assay [8] has as its system Bacteria. Put plainly: Inhibition of ATP-dependent ClpXP proteases (unknown origin).

Structures are written as SMILES. Converted amounts (≈) assume the structure as drawn. The source made the active and inactive calls. The rule behind the calls is not given here.

The EC50 is the concentration needed to bring the measured effect to its halfway point. Read a high EC50 as lower potency in that assay. In general, MIC refers to the lowest concentration found to suppress growth.

As to `CO[C@@H]1C[C@@H](C[C@H]2CC[C@H](C)[C@H]([C@@H](C)C(=O)O)O2)O[C@]2(O[C@](C)([C@H]3CC[C@@](C)([C@@H]4O[C@@H]([C@H]5O[C@@](O)(CO)[C@H](C)C[C@@H]5C)C[C@@H]4C)O3)C[C@H]2C)[C@@H]1C`, the result in the assay on Cell membrane [1] was Active.
In turn, `CCCCCCCCCCCCN1C(=O)C(Cl)=C(Cl)C12Oc1c(cc(Cl)c(O)c1CCCCCC)C2=O` (stereo not drawn) yielded an EC50 in the assay with Cell membrane [2] of more than 8 µg/mL. For the same molecule, the MEC in the assay on Cell membrane [3] is more than 1 µg/mL. Besides, in the assay with Staphylococcus aureus, the minimum inhibitory concentration (MIC) came out at 16 µg/mL.
The matching figures for `CCCCCCc1c(OC)c(Cl)cc2c1OC1(C2=O)C(Cl)=C(Cl)C(=O)N1C` (stereo not drawn): 2.04 µg/mL (≈ 4.71 µM), 4 µg/mL and more than 32 µg/mL.
Taken in the same sequence, the figures for `CCCCCCc1c(O)c(Cl)cc2c1OC1(C2=O)C(Cl)=C(Cl)C(=O)N1Cc1ccc(C(F)(F)F)cc1` (stereo not drawn) were 0.3 µg/mL (≈ 0.533 µM), 0.125 µg/mL and 2 µg/mL.
In turn, `CCCCCCc1c(O)c(Cl)cc2c1OC1(C2=O)C(Cl)=C(Cl)C(=O)N1Cc1ccc(C)cc1` (stereo not drawn) yielded a half-maximal effective concentration (EC50) in the assay with Cell membrane [2] of 0.07 µg/mL (≈ 0.138 µM). Further, the MEC in the assay with Cell membrane [3] amounted to 0.125 µg/mL. For the same molecule, in the assay with Escherichia coli [4], the FIC was more than 4. Besides, in the assay on Staphylococcus aureus, the MIC was found to be 0.5 µg/mL.
With `Cc1c(O)c(Cl)cc2c1OC1(C2=O)C(Cl)=C(Cl)C(=O)N1Cc1ccccc1` (stereo not drawn), the concentration giving a half-maximal response (EC50) with Cell membrane [2] is 3.2 µg/mL (≈ 7.54 µM). In addition, in the assay with Cell membrane [3], the MEC was determined as 4 µg/mL. Further, the MIC with Staphylococcus aureus was found to be 32 µg/mL.
Molecule `CCCCCCN1C(=O)C(Cl)=C(Cl)C12Oc1c(cc(Cl)c(O)c1C)C2=O` (stereo not drawn) yielded an EC50 in the assay on Cell membrane [2] of 0.17 µg/mL (≈ 0.406 µM). In the assay with Cell membrane [3], the MEC stood at 0.5 µg/mL. Moreover, in the assay on Staphylococcus aureus, the MIC came to 4 µg/mL.
Taken in the same sequence, the figures for `CCCCCCCCCCCCN1C(=O)C(Cl)=C(Cl)C12Oc1c(cc(Cl)c(O)c1C)C2=O` (stereo not drawn) were 0.28 µg/mL (≈ 0.557 µM), 0.25 µg/mL and 1 µg/mL.
Taken in the same sequence, the figures for `Cc1c(O)c(Cl)cc2c1OC1(C2=O)C(Cl)=C(Cl)C(=O)N1Cc1ccc(C(F)(F)F)cc1` (stereo not drawn) were 2.45 µg/mL (≈ 4.97 µM), 2 µg/mL and 16 µg/mL.
Taken in the same sequence, the figures for `Cc1c(O)c(Cl)cc2c1OC1(C2=O)C(Cl)=C(Cl)C(=O)N1C` (stereo not drawn) were more than 8 µg/mL, 8 µg/mL and more than 32 µg/mL.
As to `C=CCN1C(=O)C(Cl)=C(Cl)C12Oc1c(cc(Cl)c(O)c1CCCCCC)C2=O` (stereo not drawn), the EC50 in the assay on Cell membrane [2] came to 0.23 µg/mL (≈ 0.517 µM). Moreover, the MEC in the assay with Cell membrane [3] is 0.25 µg/mL. Further, in the assay with Staphylococcus aureus, the MIC was found to be 4 µg/mL.
The matching figures for `C=CCN1C(=O)C(Cl)=C(Cl)C12Oc1c(cc(Cl)c(O)c1C)C2=O` (stereo not drawn): more than 8 µg/mL, 8 µg/mL and more than 32 µg/mL.
Take `CC(C)[C@@H]1NC(=O)[C@H](C)OC(=O)[C@@H](C(C)C)NC(=O)[C@@H](C(C)C)OC(=O)[C@H](C(C)C)NC(=O)[C@H](C)OC(=O)[C@@H](C(C)C)NC(=O)[C@@H](C(C)C)OC(=O)[C@H](C(C)C)NC(=O)[C@H](C)OC(=O)[C@@H](C(C)C)NC(=O)[C@@H](C(C)C)OC1=O`: the result in the assay on Cell membrane [5] was Active.
In the assay on Cell membrane [2], `CCCCCCc1c(O)c(Cl)cc2c1OC1(C2=O)C(Cl)=C(Cl)C(=O)N1Cc1ccccc1` (stereo not drawn) displayed an EC50 of 0.39 µg/mL (≈ 0.788 µM). Further, the MEC in the assay on Cell membrane [3] turned out to be 0.5 µg/mL. Besides, the MIC in the assay with Staphylococcus aureus was 1 µg/mL.
`CCCCCCc1c(O)c(Cl)cc2c1OC1(C2=O)C(Cl)=C(Cl)C(=O)N1CCc1ccccc1` (stereo not drawn) displayed an EC50 with Cell membrane [2] of 0.12 µg/mL (≈ 0.236 µM). Besides, in the assay with Cell membrane [3], the MEC worked out at 0.125 µg/mL. The MIC with Staphylococcus aureus was found to be 0.5 µg/mL.
Take `CCCCCCc1c(O)c(Cl)cc2c1OC1(C2=O)C(Cl)=C(Cl)C(=O)N1C` (stereo not drawn): the FIC is given as 0.656 in the assay on Escherichia coli [6] and more than 4 in the assay on Escherichia coli [4]. Besides, the EC50 in the assay on Cell membrane [2] came to 0.42 µg/mL (≈ 1 µM). For the same molecule, in the assay with Cell membrane [5], the outcome was Active. Besides, in the assay on Cell membrane [3], the MEC was 0.5 µg/mL. For the same molecule, in the assay with Staphylococcus aureus, the MIC turned out to be 4 µg/mL.
As to `CCCCCCc1c(O)c(Cl)cc2c1OC1(C2=O)C(Cl)=C(Cl)C(=O)N1CCCCCC` (stereo not drawn), the EC50 in the assay with Cell membrane [2] is 0.07 µg/mL (≈ 0.143 µM). In addition, in the assay with Cell membrane [3], the MEC worked out at 0.0312 µg/mL. Besides, the FIC with Escherichia coli [4] was more than 4. In addition, the minimal inhibitory concentration (MIC) with Staphylococcus aureus came to 1 µg/mL.
In the assay with Cell membrane [2], `CCCCCCc1c(OC)c(Cl)cc2c1OC1(C2=O)C(Cl)=C(Cl)C(=O)N1CCCCCC` (stereo not drawn) registered an EC50 of 0.54 µg/mL (≈ 1.07 µM). The inhibition result with Bacteria [7] and with Bacteria [8] was “inactive” each time. The MEC with Cell membrane [3] was 0.125 µg/mL. For the same molecule, the MIC in the assay with Staphylococcus aureus was determined as 4 µg/mL.
As for `CCCCCCc1c(OC)c(Cl)cc2c1OC1(C2)NC(=O)C(Cl)=C1Cl` (stereo not drawn), the outcome in the assay with Cell membrane [5] was Active.
